{
  "source": "patent US20100322961A1",
  "about": "“Intranasal Drug Delivery System” (priority 2007, published 2010)",
  "origin": "cited, not measured here",
  "conditions": "pure substance; background statement",
  "data": [
    {"smiles": "COc1cc(CNC(=O)CCCC/C=C/C(C)C)ccc1O", "note": "[capsaicin]", "values": [
      {"measurement": "pungency (Scoville heat units)", "result": "15,000,000-16,000,000 Scoville units"}
    ]}
  ]
}
